Assay results reported in ChEMBL document CHEMBL1909046, “DrugMatrix in vitro pharmacology data”.

Experiments:
Cytochrome P450 2E1 = Cytochrome P450 2E1 (Homo sapiens, UniProt P05181); details: bti-tn-5b1-4; also: in other assays of this panel Not Active means under 50% inhibition at 10 µM
[1] = molecular target: Delta-type opioid receptor (Homo sapiens, UniProt P41143); format: cell membranes, HEK293, Membrane; details: hek293; also: in other assays of this panel Not Active means under 50% inhibition at 10 µM
Sequence of Delta-type opioid receptor (P41143 whole entry): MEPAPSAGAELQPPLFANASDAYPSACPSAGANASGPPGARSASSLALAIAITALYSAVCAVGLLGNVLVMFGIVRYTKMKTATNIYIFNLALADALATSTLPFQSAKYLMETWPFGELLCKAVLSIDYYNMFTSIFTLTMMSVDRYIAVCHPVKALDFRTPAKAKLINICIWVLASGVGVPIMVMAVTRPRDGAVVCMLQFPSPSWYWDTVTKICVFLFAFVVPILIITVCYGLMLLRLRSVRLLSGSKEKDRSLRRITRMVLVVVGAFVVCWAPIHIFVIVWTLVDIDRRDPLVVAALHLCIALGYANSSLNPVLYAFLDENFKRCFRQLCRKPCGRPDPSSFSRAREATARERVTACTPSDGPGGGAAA

Calcitonin receptor = molecular target: T1, Calcitonin receptor (Homo sapiens, UniProt P30988); format: cell membranes, Membrane; details: t47d; also: in other assays of this panel Not Active means under 50% inhibition at 10 µM
T1 sequence (P30988 whole entry): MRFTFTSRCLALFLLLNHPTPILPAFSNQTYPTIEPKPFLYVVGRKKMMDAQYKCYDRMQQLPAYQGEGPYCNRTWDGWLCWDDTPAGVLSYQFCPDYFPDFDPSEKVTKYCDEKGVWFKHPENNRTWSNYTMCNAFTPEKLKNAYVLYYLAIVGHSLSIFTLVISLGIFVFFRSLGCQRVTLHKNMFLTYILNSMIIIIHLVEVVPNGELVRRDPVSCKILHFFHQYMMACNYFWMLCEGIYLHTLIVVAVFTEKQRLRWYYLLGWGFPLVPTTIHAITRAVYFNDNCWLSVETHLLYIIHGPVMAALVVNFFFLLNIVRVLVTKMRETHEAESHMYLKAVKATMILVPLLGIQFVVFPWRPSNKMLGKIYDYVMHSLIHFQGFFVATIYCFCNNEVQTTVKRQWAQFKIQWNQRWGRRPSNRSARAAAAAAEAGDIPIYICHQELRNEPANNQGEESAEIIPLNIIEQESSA

[2] = molecular target: T2, Neuropeptide Y receptor type 2 (Homo sapiens, UniProt P49146); format: cell membranes, Membrane; details: kan-ts; also: in other assays of this panel Not Active means under 50% inhibition at 10 µM
T2 sequence (P49146 whole entry): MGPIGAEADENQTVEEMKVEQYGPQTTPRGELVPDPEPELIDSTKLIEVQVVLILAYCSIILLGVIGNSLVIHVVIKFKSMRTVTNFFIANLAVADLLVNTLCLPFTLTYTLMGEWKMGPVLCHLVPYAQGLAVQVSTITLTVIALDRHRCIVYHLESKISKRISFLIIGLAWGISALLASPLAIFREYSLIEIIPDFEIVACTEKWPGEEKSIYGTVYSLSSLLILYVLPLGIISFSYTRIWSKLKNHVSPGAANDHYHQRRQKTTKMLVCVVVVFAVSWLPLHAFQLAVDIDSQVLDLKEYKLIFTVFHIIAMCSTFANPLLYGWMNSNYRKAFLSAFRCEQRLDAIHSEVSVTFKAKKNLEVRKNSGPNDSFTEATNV

Adenosine receptor A3 = molecular target: T3, Adenosine receptor A3 (Homo sapiens, UniProt P0DMS8); format: cell membranes, CHO-K1, Membrane; details: cho-k1
T3 sequence (P0DMS8 whole entry): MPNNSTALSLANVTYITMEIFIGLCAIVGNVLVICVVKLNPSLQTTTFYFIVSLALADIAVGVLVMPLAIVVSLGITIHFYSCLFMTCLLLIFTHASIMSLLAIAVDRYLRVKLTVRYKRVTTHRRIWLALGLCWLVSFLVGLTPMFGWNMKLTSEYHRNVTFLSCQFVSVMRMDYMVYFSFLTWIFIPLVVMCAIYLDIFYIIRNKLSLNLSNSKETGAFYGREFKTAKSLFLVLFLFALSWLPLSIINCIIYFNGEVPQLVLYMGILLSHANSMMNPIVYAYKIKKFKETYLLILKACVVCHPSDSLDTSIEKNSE

D(4) dopamine receptor = molecular target: T4, D(4) dopamine receptor (Homo sapiens, UniProt P21917); assay: DRUGMATRIX: Dopamine D4.2 radioligand binding (ligand: [3H] Spiperone); format: cell membranes, CHO-K1, Membrane; details: cho-k1; Not Active = under 50% inhibition at 10 µM
T4 sequence (P21917 whole entry): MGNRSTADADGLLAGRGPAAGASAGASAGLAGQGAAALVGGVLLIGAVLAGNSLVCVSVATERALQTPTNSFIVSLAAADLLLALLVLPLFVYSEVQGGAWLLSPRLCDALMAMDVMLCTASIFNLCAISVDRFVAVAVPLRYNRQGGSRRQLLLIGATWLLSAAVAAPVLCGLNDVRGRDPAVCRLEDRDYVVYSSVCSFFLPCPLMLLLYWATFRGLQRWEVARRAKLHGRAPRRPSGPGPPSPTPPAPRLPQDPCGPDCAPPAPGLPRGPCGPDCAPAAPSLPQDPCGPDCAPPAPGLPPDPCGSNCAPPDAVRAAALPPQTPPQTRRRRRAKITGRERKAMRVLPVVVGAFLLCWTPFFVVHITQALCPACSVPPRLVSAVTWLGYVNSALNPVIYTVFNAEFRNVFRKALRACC

[3] = molecular target: Sodium-dependent noradrenaline transporter (Homo sapiens, UniProt P23975); assay: DRUGMATRIX: Norepinephrine Transporter radioligand binding (ligand: [125I] RTI-55); format: cell membranes, MDCK, Membrane; details: mdck; Not Active = under 50% inhibition at 10 µM
Sequence of Sodium-dependent noradrenaline transporter (P23975 whole entry): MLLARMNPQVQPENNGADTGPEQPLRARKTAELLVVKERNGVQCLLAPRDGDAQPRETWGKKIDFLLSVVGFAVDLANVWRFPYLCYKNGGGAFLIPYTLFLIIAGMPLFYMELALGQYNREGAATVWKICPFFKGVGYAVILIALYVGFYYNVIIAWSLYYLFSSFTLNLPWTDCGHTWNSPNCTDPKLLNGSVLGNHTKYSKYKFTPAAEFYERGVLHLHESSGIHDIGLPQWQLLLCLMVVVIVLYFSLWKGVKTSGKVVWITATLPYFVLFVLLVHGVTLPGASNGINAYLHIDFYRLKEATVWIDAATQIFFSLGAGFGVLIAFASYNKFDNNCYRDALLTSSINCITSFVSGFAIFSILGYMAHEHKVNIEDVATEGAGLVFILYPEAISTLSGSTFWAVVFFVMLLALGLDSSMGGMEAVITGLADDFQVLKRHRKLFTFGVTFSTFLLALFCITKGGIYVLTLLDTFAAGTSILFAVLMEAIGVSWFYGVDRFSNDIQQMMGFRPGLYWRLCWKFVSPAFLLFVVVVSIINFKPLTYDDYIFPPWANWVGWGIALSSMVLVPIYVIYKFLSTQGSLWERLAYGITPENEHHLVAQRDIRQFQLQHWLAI

Sequence of Cytochrome P450 2E1 (P05181 whole entry): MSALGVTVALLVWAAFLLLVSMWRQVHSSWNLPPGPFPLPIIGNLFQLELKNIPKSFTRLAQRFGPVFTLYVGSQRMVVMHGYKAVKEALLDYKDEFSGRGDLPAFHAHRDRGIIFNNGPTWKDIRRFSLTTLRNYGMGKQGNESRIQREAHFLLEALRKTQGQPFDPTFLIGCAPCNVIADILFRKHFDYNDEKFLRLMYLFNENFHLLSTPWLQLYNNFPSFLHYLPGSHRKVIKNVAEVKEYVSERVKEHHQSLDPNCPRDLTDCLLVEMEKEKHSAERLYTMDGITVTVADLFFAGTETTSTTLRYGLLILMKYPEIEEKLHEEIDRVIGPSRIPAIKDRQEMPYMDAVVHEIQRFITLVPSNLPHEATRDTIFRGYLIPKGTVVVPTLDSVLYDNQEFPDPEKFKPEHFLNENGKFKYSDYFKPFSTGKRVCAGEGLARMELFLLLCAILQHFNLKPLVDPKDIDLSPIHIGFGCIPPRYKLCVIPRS

Nc1ccc(C(=O)O)c(O)c1 [AMINOSALICYLIC ACID]
Not Active: IC50 (Cytochrome P450 2E1) | Ki (Cytochrome P450 2E1) | IC50 [1] | IC50 (Calcitonin receptor) | IC50 [2] | IC50 (Adenosine receptor A3) | IC50 (D(4) dopamine receptor) | IC50 [3]
